Measurements reported in US7410975B2, “Small molecule toll-like receptor (TLR) antagonists” (Coley Pharmaceutical Group, Inc., priority 2003, dated 2008).
Structures can show the parent of a compound that is named as a salt.

Target: T1, human TLR8 (hTLR8) (Homo sapiens, UniProt Q9NR97)
T1 construct: expressed in transfected cells
T1 sequence (Q9NR97 27-1041): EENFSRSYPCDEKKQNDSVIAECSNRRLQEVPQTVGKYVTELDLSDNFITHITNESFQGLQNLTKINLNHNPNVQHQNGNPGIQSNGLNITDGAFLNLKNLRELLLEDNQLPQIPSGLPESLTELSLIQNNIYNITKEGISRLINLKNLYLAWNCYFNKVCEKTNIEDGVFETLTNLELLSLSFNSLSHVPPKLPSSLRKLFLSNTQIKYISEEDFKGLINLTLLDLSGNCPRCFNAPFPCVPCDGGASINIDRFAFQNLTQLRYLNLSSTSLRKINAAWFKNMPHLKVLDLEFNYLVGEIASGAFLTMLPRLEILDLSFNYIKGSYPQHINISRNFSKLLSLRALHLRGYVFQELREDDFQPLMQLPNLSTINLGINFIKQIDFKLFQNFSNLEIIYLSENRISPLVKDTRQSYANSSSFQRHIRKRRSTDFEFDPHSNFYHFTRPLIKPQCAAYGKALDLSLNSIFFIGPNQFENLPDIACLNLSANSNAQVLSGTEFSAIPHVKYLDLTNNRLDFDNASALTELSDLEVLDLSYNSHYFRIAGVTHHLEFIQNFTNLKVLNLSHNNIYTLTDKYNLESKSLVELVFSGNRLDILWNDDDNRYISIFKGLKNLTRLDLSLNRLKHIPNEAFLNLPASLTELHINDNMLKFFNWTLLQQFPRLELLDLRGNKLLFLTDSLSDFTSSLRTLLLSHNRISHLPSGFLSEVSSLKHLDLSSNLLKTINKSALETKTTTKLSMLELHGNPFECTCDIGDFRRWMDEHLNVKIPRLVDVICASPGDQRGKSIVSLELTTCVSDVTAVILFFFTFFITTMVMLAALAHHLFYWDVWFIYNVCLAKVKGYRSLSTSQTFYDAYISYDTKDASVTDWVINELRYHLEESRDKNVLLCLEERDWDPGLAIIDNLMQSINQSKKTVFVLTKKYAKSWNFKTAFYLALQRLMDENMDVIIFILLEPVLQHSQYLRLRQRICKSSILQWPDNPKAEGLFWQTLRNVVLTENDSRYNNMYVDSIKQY
Assay: Antagonist screen, hTLR8-NFκB-293 cells, NF-κB-luciferase reporter, with EC50 of R848
Assay type: cell-based
Conditions: compound at 0.5, 5, 50 μg/ml; EC50 concentration of R848; 16 h; NF-κB-luciferase

Row | Structure (SMILES) | hTLR8 (inhibitory effect, antagonist score)
1 | CN1CCc2cc3c(c4c2C1Cc1ccccc1-4)OCO3.Cl (stereo not drawn) [compound 669, Remerine hydrochloride] | — (compounds for which there was no clear down regulation even at 50 μg/ml)
2 | COc1cc2nc(N3CCN(C(=O)C4COc5ccccc5O4)CC3)nc(N)c2cc1OC.CS(=O)(=O)O (stereo not drawn) [compound 858, Doxazosin mesylate] | — (compounds for which there was no clear down regulation even at 50 μg/ml)
3 | CN1CCc2cccc3c2[C@H]1Cc1ccc(O)c(O)c1-3.Cl [compound 101, Apomorphinehydrochloride (R, —)] | 11 (compounds for which there was clear down regulation only at 50 μg/ml)
4 | CN(C)C(=O)C(CCN1CCC(O)(c2ccc(Cl)cc2)CC1)(c1ccccc1)c1ccccc1 [compound 144, Loperamidehydrochloride] | 11 (compounds for which there was clear down regulation only at 50 μg/ml)
5 | CC(C)(C)c1ccc(C(O)CCCN2CCC(C(O)(c3ccccc3)c3ccccc3)CC2)cc1 (stereo not drawn) [compound 138, Terfenadine] | 11 (compounds for which there was clear down regulation only at 50 μg/ml)
6 | COc1cc2c(cc1O)C[C@H]1c3c(cc(O)c(OC)c3-2)CCN1C [compound 600, Boldine] | — (compounds for which there was no clear down regulation even at 50 μg/ml)
7 | CCN(CC)CCCC(C)Nc1nc(/C=C/c2ccc(Cl)cc2)nc2cc3ccccc3cc12 (stereo not drawn) [compound 2000] | 11 (compounds for which there was clear down regulation only at 50 μg/ml)
8 | COc1cc2nc(N3CCN(C(=O)C4CCCO4)CC3)nc(N)c2cc1OC.Cl (stereo not drawn) [compound 751, Terazosin hydrochloride] | — (compounds for which there was no clear down regulation even at 50 μg/ml)

Same assay, conditions: hTLR8-NFκB-293 cells, with EC50 of R848; compound at 0.5, 5 and 50 μg/ml

Row | Structure (SMILES) | hTLR8 (inhibitory effect)
9 | CC[N+](C)(CC)CCC[n+]1c(-c2ccccc2)c2cc(N)ccc2c2ccc(N)cc21.[I-].[I-] [compound 792, Propidium iodide] | — (compounds for which there was no clear down regulation even at 50 μg/ml)
10 | CCCCCCCCCCCC(=O)Nc1c2c(nc3ccccc13)N(C)CC2 [compound 1334] | — (compounds for which there was no clear down regulation even at 50 μg/ml)
11 | Cc1ccc(-n2c(NCCO)nc3c(c2=O)C2(CCCCC2)Cc2ccccc2-3)cc1 [compound 1137] | 11 (compounds for which there was clear down regulation only at 50 μg/ml)
12 | COc1cc2cc3c4cc(OC)c(OC)cc4cc[n+]3c(C)c2cc1OC [compound 431, Coralyne chloridehydrate] | — (compounds for which there was no clear down regulation even at 50 μg/ml)
13 | CN1CCCCc2c1nc1ccccc1c2N [compound 1185, 1-Methyl-2,3,4,5-tetrahydro-1H-azepino[2,3-b]quinolin-6-ylamine] | — (compounds for which there was no clear down regulation even at 50 μg/ml)
14 | O=C1c2ccc(S(=O)(=O)c3ccc4c(c3)C(=O)N(c3ccccn3)C4=O)cc2C(=O)N1c1ccccn1 [compound 1163] | 11 (compounds for which there was clear down regulation only at 50 μg/ml)
15 | Cn1c(NN)nc2c(c1=O)C1(CCCC1)Cc1ccccc1-2 [compound 1213] | — (compounds for which there was no clear down regulation even at 50 μg/ml)
16 | CN1CCc2c1nc1ccccc1c2NC(=O)CN1CCCCCC1 [compound 1003] | — (compounds for which there was no clear down regulation even at 50 μg/ml)
17 | CN1CCc2c1nc1ccc(Br)cc1c2N [compound 1142, 6-Bromo-1-methyl-2,3-dihydro-1H-pyrrolo[2,3-b]quinolin-4-ylamine] | 11 (compounds for which there was clear down regulation only at 50 μg/ml)
18 | Nc1c2c(nc3ccccc13)N(Cc1ccccc1)CC2 [compound 1217, 1-Benzyl-2,3-dihydro-1H-pyrrolo[2,3-b]quinolin-4-ylamine] | 11 (compounds for which there was clear down regulation only at 50 μg/ml)
19 | O=c1[nH]c(NCCO)nc2c1C1(CCCC1)Cc1ccccc1-2 [compound 1322] | — (compounds for which there was no clear down regulation even at 50 μg/ml)
20 | COc1ccc(Cc2nccc3cc(OC)c(OC)cc23)cc1OC.Cl [compound 583, Papaverinehydrochloride] | — (compounds for which there was no clear down regulation even at 50 μg/ml)
21 | NNc1nc2c(c(=O)n1-c1ccccc1)C1(CCCC1)Cc1ccccc1-2 [compound 1320] | — (compounds for which there was no clear down regulation even at 50 μg/ml)
22 | O=c1c2c(nc(NCCO)n1Cc1ccccc1)-c1ccccc1CC21CCCC1 [compound 926] | 11 (compounds for which there was clear down regulation only at 50 μg/ml)
23 | CCOc1ccc(Cc2nccc3cc(OCC)c(OCC)cc23)cc1OCC.Cl [compound 830, Ethaverinehydrochloride] | 11 (compounds for which there was clear down regulation only at 50 μg/ml)
24 | CCCCCCN(CCCCCC)CC(=O)Nc1c2c(nc3ccccc13)N(C)CC2 [compound 1224] | 12 (compounds for which there was clear down regulation at 5 μg/ml and 50 μg/ml)
25 | Cc1ccc2nc3c(c(N)c2c1)CCN3C [compound 1091, 1,6-Dimethyl-2,3-dihydro-1H-pyrrolo[2,3-b]quinolin-4-ylamine] | 11 (compounds for which there was clear down regulation only at 50 μg/ml)
26 | O=c1c2c(nc(NCCO)n1-c1ccccc1)-c1ccccc1CC21CCCC1 [compound 891] | — (compounds for which there was no clear down regulation even at 50 μg/ml)
27 | O=C(CN1CCCC1)Nc1c2c(nc3ccccc13)N(c1ccccc1)CC2 [compound 1244] | 11 (compounds for which there was clear down regulation only at 50 μg/ml)
28 | CN1CCc2c1nc1ccccc1c2NC(=O)CN1CCN(c2ccccc2)CC1 [compound 1212] | — (compounds for which there was no clear down regulation even at 50 μg/ml)
29 | NNc1nc2c(c(=O)n1C1CCCC1)C1(CCCC1)Cc1ccccc1-2 [compound 1248] | 11 (compounds for which there was clear down regulation only at 50 μg/ml)
30 | COc1ccc2cc3[n+](cc2c1OC)CCc1cc2c(cc1-3)OCO2.[Cl-] [compound 586, Berberine chloride] | 12 (compounds for which there was clear down regulation at 5 μg/ml and 50 μg/ml)
31 | O=C1c2ccc(Oc3ccc(S(=O)(=O)c4ccc(Oc5ccc6c(c5)C(=O)N(c5ccccn5)C6=O)cc4)cc3)cc2C(=O)N1c1ccccn1 [compound 1367] | 11 (compounds for which there was clear down regulation only at 50 μg/ml)
32 | CN1CCc2c1nc1ccccc1c2N [compound 990, 1-Methyl-2,3-dihydro-1H-pyrrolo[2,3-b]quinolin-4-ylamine] | — (compounds for which there was no clear down regulation even at 50 μg/ml)
33 | CN(C)CCN(Cc1ccc(Cl)cc1)c1ccccn1.Cl [compound 807, Chloro-pyraminehydrochloride] | — (compounds for which there was no clear down regulation even at 50 μg/ml)
